Target: Carbonic anhydrase 6 (Homo sapiens) (UniProt P23280)
Sequence (P23280 whole entry): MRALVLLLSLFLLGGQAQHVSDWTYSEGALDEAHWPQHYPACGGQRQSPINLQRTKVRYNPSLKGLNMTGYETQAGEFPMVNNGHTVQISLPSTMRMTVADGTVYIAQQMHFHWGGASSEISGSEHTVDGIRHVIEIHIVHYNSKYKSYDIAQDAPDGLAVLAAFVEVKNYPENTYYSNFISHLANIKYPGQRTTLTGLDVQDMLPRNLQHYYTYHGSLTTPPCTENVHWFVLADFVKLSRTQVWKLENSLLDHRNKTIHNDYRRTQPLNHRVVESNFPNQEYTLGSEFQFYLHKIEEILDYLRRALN
Description: Inhibition of full length human recombinant full length CA6 expressed in Escherichia coli BL21 by CO2 hydration method

SMILES	Kinact
O=[As](O)(O)c1ccccc1	13.9 mM
NS(=O)(=O)O	0.09 mM

Reference: ChEMBL document CHEMBL1139043, “Carbonic anhydrase inhibitors. Inhibition studies of the human secretory isoform VI with anions” (Bioorg Med Chem Lett, 2007)
